Measurements: US20220389061A1, “IMMUNOMODULATORS” (priority 2019, published 2022)
Starred links: 1 amine or outer side, 2 acyl side, 3 side chain; linkers in the order of their positions; H or OH if unused. Positions of bridges follow the written chain, without caps; N, C: chain ends. Non-standard residues stand in square brackets, D forms with d. Residues, ends and D or L forms follow the SMILES beside them. Groups on a side chain read outwards from the residue. *: point of attachment. Trp(1-CH2CO2Me) = COC(=O)Cn1cc(C[C@H](N)C(=O)O)c2ccccc21; Trp(1-CH2COOH) = N[C@@H](Cc1cn(CC(=O)O)c2ccccc12)C(=O)O; X18 = O=[N+]([O-])c1ccc(NC(=S)*)c(Cl)c1; X23 = COc1cc(NC(=S)*)ccc1-n1cnc(Cl)c1; X24 = COc1cc(NC(=S)*)ccc1-n1cnc(C)n1; Hyp = O=C(O)[C@@H]1C[C@@H](O)CN1; X33 = Cc1cc2ccc(NC(=S)*)cc2[nH]1; X47 = O=C(c1cn2c(n1)sc1ccccc12)*; X10 = S=C(Nc1ccc(N2CCOCC2)cc1)*; X3 = S=C(Nc1ccc(Oc2ccccc2)cc1)*; pNA = O=[N+]([O-])c1ccc(N*)cc1; NMeNle = CCCC[C@H](NC)C(=O)O; X7 = S=C(Nc1ccc2cc[nH]c2c1)*; NMeA = CN[C@@H](C)C(=O)O; Dab = NCC[C@H](N)C(=O)O; X39 = CCCCOc1ccc(N*)cc1; X45 = c1ccc2sc(N*)cc2c1; Dap = NC[C@H](N)C(=O)O; X46 = COc1ccc(Cl)cc1N*; CO = O=C([*:1])[*:2]

These compounds were tested against T1, PD-1/PD-L1 (Homo sapiens, UniProt Q9NZQ7) (assay: PD-1/PD-L1 Homogenous Time-Resolved Fluorescence (HTRF) binding assay). Conditions: not given.
T1 construct: TVMV protease site linker (C); made in house; host or cells: HEK293T cells
Outline: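 Compounds preincubated 15 min with PD-L1-His (10 nM final), then PD-1-Ig (20 nM final) added for 15 min in dPBS with 0.1% BSA, 0.05% Tween-20. Detection by Eu-cryptate anti-Ig (1 nM) and APC anti-His (20 nM) HTRF.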

T1 sequence (Q9NZQ7 18-239): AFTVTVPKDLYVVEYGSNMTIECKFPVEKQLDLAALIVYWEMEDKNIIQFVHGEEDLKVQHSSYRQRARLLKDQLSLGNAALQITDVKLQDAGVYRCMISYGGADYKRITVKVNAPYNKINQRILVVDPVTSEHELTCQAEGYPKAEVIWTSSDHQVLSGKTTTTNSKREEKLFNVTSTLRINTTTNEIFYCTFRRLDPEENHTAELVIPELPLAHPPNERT

SMILES | IC50 [nM]
CCCC[C@H]1C(=O)N(C)[C@@H](CCCC)C(=O)N[C@@H](CC(C)C)C(=O)N[C@H](C(=O)NCC(N)=O)CSCC(=O)N[C@@H](Cc2ccc(O)cc2)C(=O)N(C)[C@@H](C)C(=O)N[C@@H](CC(N)=O)C(=O)N2CCC[C@H]2C(=O)N[C@@H](CNC(=O)Nc2ccc([N+](=O)[O-])cc2)C(=O)N[C@@H](CC(C)C)C(=O)N2C[C@H](O)C[C@H]2C(=O)N[C@@H](Cc2c[nH]c3ccccc23)C(=O)N[C@@H](CCN)C(=O)N[C@@H](Cc2cn(CC(=O)O)c3ccccc23)C(=O)N1C [Example 1132] ({CH2CO}-Y[NMeA]NP[Dap]([CO-pNA])L[Hyp]W[Dab][Trp(1-CH2COOH)][NMeNle][NMeNle]LCG-NH2; thioether N-14) | 3.7

Same assay, conditions: PD-L1-His 10 nM pre-incubated with inhibitor, PD-1-Ig 20 nM; read-out: HTRF IC50

SMILES | IC50 [nM]
CCCC[C@H]1C(=O)N(C)[C@@H](CCCC)C(=O)N[C@@H](CC(C)C)C(=O)N[C@H](C(=O)NCC(N)=O)CSCC(=O)N[C@@H](Cc2ccc(O)cc2)C(=O)N(C)[C@@H](C)C(=O)N[C@@H](CC(N)=O)C(=O)N2CCC[C@H]2C(=O)N[C@@H](CNC(=O)Nc2cc3ccccc3s2)C(=O)N[C@@H](CC(C)C)C(=O)N2C[C@H](O)C[C@H]2C(=O)N[C@@H](Cc2c[nH]c3ccccc23)C(=O)N[C@@H](CCNC(=O)Nc2cc3ccccc3s2)C(=O)N[C@@H](Cc2cn(CC(=O)O)c3ccccc23)C(=O)N1C [Example 3022] ({CH2CO}-Y[NMeA]NP[Dap]([CO-X45])L[Hyp]W[Dab]([CO-X45])[Trp(1-CH2COOH)][NMeNle][NMeNle]LCG-NH2; thioether N-14) | 11
CCCC[C@H]1C(=O)N(C)[C@@H](CCCC)C(=O)N[C@@H](CC(C)C)C(=O)N[C@H](C(=O)NCC(N)=O)CSCC(=O)N[C@@H](Cc2ccc(O)cc2)C(=O)N(C)[C@@H](C)C(=O)N[C@@H](CC(N)=O)C(=O)N2CCC[C@H]2C(=O)N[C@@H](CNC(=S)Nc2ccc(-n3cnc(C)n3)c(OC)c2)C(=O)N[C@@H](CC(C)C)C(=O)N2C[C@H](O)C[C@H]2C(=O)N[C@@H](Cc2c[nH]c3ccccc23)C(=O)N[C@@H](CCN)C(=O)N[C@@H](Cc2cn(CC(=O)O)c3ccccc23)C(=O)N1C [Example 1054] ({CH2CO}-Y[NMeA]NP[Dap](X24)L[Hyp]W[Dab][Trp(1-CH2COOH)][NMeNle][NMeNle]LCG-NH2; thioether N-14) | 3.5
CCCC[C@H]1C(=O)N(C)[C@@H](CCCC)C(=O)N[C@@H](CC(C)C)C(=O)N[C@H](C(=O)NCC(N)=O)CSCC(=O)N[C@@H](Cc2ccc(O)cc2)C(=O)N(C)[C@@H](C)C(=O)N[C@@H](CC(N)=O)C(=O)N2CCC[C@H]2C(=O)N[C@@H](CNC(=S)Nc2ccc3cc[nH]c3c2)C(=O)N[C@@H](CC(C)C)C(=O)N2C[C@H](O)C[C@H]2C(=O)N[C@@H](Cc2c[nH]c3ccccc23)C(=O)N[C@@H](CCNC(=S)Nc2ccc3cc[nH]c3c2)C(=O)N[C@@H](Cc2cn(CC(=O)O)c3ccccc23)C(=O)N1C [Example 3002] ({CH2CO}-Y[NMeA]NP[Dap](X7)L[Hyp]W[Dab](X7)[Trp(1-CH2COOH)][NMeNle][NMeNle]LCG-NH2; thioether N-14) | 4.3
CCCC[C@H]1C(=O)N(C)[C@@H](CCCC)C(=O)N[C@@H](CC(C)C)C(=O)N[C@H](C(=O)NCC(N)=O)CSCC(=O)N[C@@H](Cc2ccc(O)cc2)C(=O)N(C)[C@@H](C)C(=O)N[C@@H](CC(N)=O)C(=O)N2CCC[C@H]2C(=O)N[C@@H](CNC(=S)Nc2ccc(N3CCOCC3)cc2)C(=O)N[C@@H](CC(C)C)C(=O)N2C[C@H](O)C[C@H]2C(=O)N[C@@H](Cc2c[nH]c3ccccc23)C(=O)N[C@@H](CCN)C(=O)N[C@@H](Cc2cn(CC(=O)O)c3ccccc23)C(=O)N1C [Example 1055] ({CH2CO}-Y[NMeA]NP[Dap](X10)L[Hyp]W[Dab][Trp(1-CH2COOH)][NMeNle][NMeNle]LCG-NH2; thioether N-14) | 0.9
CCCC[C@H]1C(=O)N(C)[C@@H](CCCC)C(=O)N[C@@H](CC(C)C)C(=O)N[C@H](C(=O)NCC(N)=O)CSCC(=O)N[C@@H](Cc2ccc(O)cc2)C(=O)N(C)[C@@H](C)C(=O)N[C@@H](CC(N)=O)C(=O)N2CCC[C@H]2C(=O)N[C@@H](CNC(=O)c2cn3c(n2)sc2ccccc23)C(=O)N[C@@H](CC(C)C)C(=O)N2C[C@H](O)C[C@H]2C(=O)N[C@@H](Cc2c[nH]c3ccccc23)C(=O)N[C@@H](CCNC(=O)c2cn3c(n2)sc2ccccc23)C(=O)N[C@@H](Cc2cn(CC(=O)OC)c3ccccc23)C(=O)N1C [Example 2001] ({CH2CO}-Y[NMeA]NP[Dap](X47)L[Hyp]W[Dab](X47)[Trp(1-CH2CO2Me)][NMeNle][NMeNle]LCG-NH2; thioether N-14) | 184
CCCC[C@H]1C(=O)N(C)[C@@H](CCCC)C(=O)N[C@@H](CC(C)C)C(=O)N[C@H](C(=O)NCC(N)=O)CSCC(=O)N[C@@H](Cc2ccc(O)cc2)C(=O)N(C)[C@@H](C)C(=O)N[C@@H](CC(N)=O)C(=O)N2CCC[C@H]2C(=O)N[C@@H](CNC(=S)Nc2ccc(Oc3ccccc3)cc2)C(=O)N[C@@H](CC(C)C)C(=O)N2C[C@H](O)C[C@H]2C(=O)N[C@@H](Cc2c[nH]c3ccccc23)C(=O)N[C@@H](CCN)C(=O)N[C@@H](Cc2cn(CC(=O)O)c3ccccc23)C(=O)N1C [Example 1045] ({CH2CO}-Y[NMeA]NP[Dap](X3)L[Hyp]W[Dab][Trp(1-CH2COOH)][NMeNle][NMeNle]LCG-NH2; thioether N-14) | 3.3
CCCCOc1ccc(NC(=O)NCC[C@@H]2NC(=O)[C@H](Cc3c[nH]c4ccccc34)NC(=O)[C@@H]3C[C@@H](O)CN3C(=O)[C@H](CC(C)C)NC(=O)[C@H](CNC(=O)Nc3ccc(OCCCC)cc3)NC(=O)[C@@H]3CCCN3C(=O)[C@H](CC(N)=O)NC(=O)[C@H](C)N(C)C(=O)[C@H](Cc3ccc(O)cc3)NC(=O)CSC[C@@H](C(=O)NCC(N)=O)NC(=O)[C@H](CC(C)C)NC(=O)[C@H](CCCC)N(C)C(=O)[C@H](CCCC)N(C)C(=O)[C@H](Cc3cn(CC(=O)O)c4ccccc34)NC2=O)cc1 [Example 1120] ({CH2CO}-Y[NMeA]NP[Dap]([CO-X39])L[Hyp]W[Dab]([CO-X39])[Trp(1-CH2COOH)][NMeNle][NMeNle]LCG-NH2; thioether N-14) | 8.5
CCCC[C@H]1C(=O)N(C)[C@@H](CCCC)C(=O)N[C@@H](CC(C)C)C(=O)N[C@H](C(=O)NCC(N)=O)CSCC(=O)N[C@@H](Cc2ccc(O)cc2)C(=O)N(C)[C@@H](C)C(=O)N[C@@H](CC(N)=O)C(=O)N2CCC[C@H]2C(=O)N[C@@H](CNC(=S)Nc2ccc([N+](=O)[O-])cc2Cl)C(=O)N[C@@H](CC(C)C)C(=O)N2C[C@H](O)C[C@H]2C(=O)N[C@@H](Cc2c[nH]c3ccccc23)C(=O)N[C@@H](CCN)C(=O)N[C@@H](Cc2cn(CC(=O)O)c3ccccc23)C(=O)N1C [Example 1111] ({CH2CO}-Y[NMeA]NP[Dap](X18)L[Hyp]W[Dab][Trp(1-CH2COOH)][NMeNle][NMeNle]LCG-NH2; thioether N-14) | 9
CCCC[C@H]1C(=O)N(C)[C@@H](CCCC)C(=O)N[C@@H](CC(C)C)C(=O)N[C@H](C(=O)NCC(N)=O)CSCC(=O)N[C@@H](Cc2ccc(O)cc2)C(=O)N(C)[C@@H](C)C(=O)N[C@@H](CC(N)=O)C(=O)N2CCC[C@H]2C(=O)N[C@@H](CNC(=S)Nc2ccc3cc(C)[nH]c3c2)C(=O)N[C@@H](CC(C)C)C(=O)N2C[C@H](O)C[C@H]2C(=O)N[C@@H](Cc2c[nH]c3ccccc23)C(=O)N[C@@H](CCN)C(=O)N[C@@H](Cc2cn(CC(=O)O)c3ccccc23)C(=O)N1C [Example 3048] ({CH2CO}-Y[NMeA]NP[Dap](X33)L[Hyp]W[Dab][Trp(1-CH2COOH)][NMeNle][NMeNle]LCG-NH2; thioether N-14) | 3
CCCC[C@H]1C(=O)N(C)[C@@H](CCCC)C(=O)N[C@@H](CC(C)C)C(=O)N[C@H](C(=O)NCC(N)=O)CSCC(=O)N[C@@H](Cc2ccc(O)cc2)C(=O)N(C)[C@@H](C)C(=O)N[C@@H](CC(N)=O)C(=O)N2CCC[C@H]2C(=O)N[C@@H](CN)C(=O)N[C@@H](CC(C)C)C(=O)N2C[C@H](O)C[C@H]2C(=O)N[C@@H](Cc2c[nH]c3ccccc23)C(=O)N[C@@H](CCNC(=O)Nc2cc3ccccc3s2)C(=O)N[C@@H](Cc2cn(CC(=O)O)c3ccccc23)C(=O)N1C [Example 3061] ({CH2CO}-Y[NMeA]NP[Dap]L[Hyp]W[Dab]([CO-X45])[Trp(1-CH2COOH)][NMeNle][NMeNle]LCG-NH2; thioether N-14) | 5.6
CCCC[C@H]1C(=O)N(C)[C@@H](CCCC)C(=O)N[C@@H](CC(C)C)C(=O)N[C@H](C(=O)NCC(N)=O)CSCC(=O)N[C@@H](Cc2ccc(O)cc2)C(=O)N(C)[C@@H](C)C(=O)N[C@@H](CC(N)=O)C(=O)N2CCC[C@H]2C(=O)N[C@@H](CNC(=O)Nc2cc(Cl)ccc2OC)C(=O)N[C@@H](CC(C)C)C(=O)N2C[C@H](O)C[C@H]2C(=O)N[C@@H](Cc2c[nH]c3ccccc23)C(=O)N[C@@H](CCN)C(=O)N[C@@H](Cc2cn(CC(=O)O)c3ccccc23)C(=O)N1C [Example 1074] ({CH2CO}-Y[NMeA]NP[Dap]([CO-X46])L[Hyp]W[Dab][Trp(1-CH2COOH)][NMeNle][NMeNle]LCG-NH2; thioether N-14) | 6.3
CCCC[C@H]1C(=O)N(C)[C@@H](CCCC)C(=O)N[C@@H](CC(C)C)C(=O)N[C@H](C(=O)NCC(N)=O)CSCC(=O)N[C@@H](Cc2ccc(O)cc2)C(=O)N(C)[C@@H](C)C(=O)N[C@@H](CC(N)=O)C(=O)N2CCC[C@H]2C(=O)N[C@@H](CNC(=S)Nc2ccc(-n3cnc(Cl)c3)c(OC)c2)C(=O)N[C@@H](CC(C)C)C(=O)N2C[C@H](O)C[C@H]2C(=O)N[C@@H](Cc2c[nH]c3ccccc23)C(=O)N[C@@H](CCN)C(=O)N[C@@H](Cc2cn(CC(=O)O)c3ccccc23)C(=O)N1C [Example 1059] ({CH2CO}-Y[NMeA]NP[Dap](X23)L[Hyp]W[Dab][Trp(1-CH2COOH)][NMeNle][NMeNle]LCG-NH2; thioether N-14) | 3.5
